# Test system: isoproterenol induced myocardial infarction
# Assay: isoproterenol induced myocardial infarction rat model
# Assay type: in vivo
# Set-up: TNF-A: unit not given here
# Settings: rats, isoproterenol 90 mg/kg bwt. + treatment 138 mg/kg bwt. (total)
Compound,GOT,GPT,LDH,TNF-A
O=c1c(O)c(-c2ccc(O)c(O)c2)oc2cc(O)cc(O)c12 [Quercetin],103.33,90.47,121.00,411.70
"O=C(O[C@@H]1Cc2c(O)cc(O)cc2O[C@@H]1c1cc(O)c(O)c(O)c1)c1cc(O)c(O)c(O)c1 [EGCG, Epigallocatechin gallate]",139.15,75.30,–,408.29
"O=C(O)[C@H]1O[C@@H](Oc2cc3oc(-c4ccccc4)cc(=O)c3c(O)c2O)[C@H](O)[C@@H](O)[C@@H]1O [Biacalin, Baicalin]",110.37,79.57,138.67,438.58
